This is an account of results in article PMC8406200, “SAMase of Bacteriophage T3 Inactivates Escherichia coli’s Methionine S-Adenosyltransferase by Forming Heteropolymers” (mBio, 2021).

B2: E. coli methionine S-adenosyltransferase (MAT), recombinant, C-terminal His6 (enzyme, E. coli MG1655, UniProt P0A817 1-384, looked up)
chain: MAKHLFTSESVSEGHPDKIADQISDAVLDAILEQDPKARVACETYVKTGMVLVGGEITTSAWVDIEEITRNTVREIGYVHSDMGFDANSCAVLSAIGKQSPDINQGVDRADPLEQGAGDQGLMFGYATNETDVLMPAPITYAHRLVQRQAEVRKNGTLPWLRPDAKSQVTFQYDDGKIVGIDAVVLSTQHSEEIDQKSLQEAVMEEIIKPILPAEWLTSATKFFINPTGRFVIGGPMGDCGLTGRKIIVDTYGGMARHGGGAFSGKDPSKVDRSAAYAARYVAKNIVAAGLADRCEIQVSYAIGVAEPTSIMVETFGTEKVPSEQLTLLVREFFDLRPYGLIQMLDLLHPIYKETAAYGHFGREHFPWEKTDKAQLLRDAAGLK
notes: Homotetramer (dimer of dimers); also called EcMAT; E. coli MAT; source: E. coli BL21(DE3) (pET24a), purified (Ni-NTA, SEC)

One data set concerns the target T1, N. gonorrhea MAT (NgMAT) (Neisseria gonorrhoeae, UniProt Q5FAC0).
T1 construct: gene metK
T1 sequence (Q5FAC0 1-389): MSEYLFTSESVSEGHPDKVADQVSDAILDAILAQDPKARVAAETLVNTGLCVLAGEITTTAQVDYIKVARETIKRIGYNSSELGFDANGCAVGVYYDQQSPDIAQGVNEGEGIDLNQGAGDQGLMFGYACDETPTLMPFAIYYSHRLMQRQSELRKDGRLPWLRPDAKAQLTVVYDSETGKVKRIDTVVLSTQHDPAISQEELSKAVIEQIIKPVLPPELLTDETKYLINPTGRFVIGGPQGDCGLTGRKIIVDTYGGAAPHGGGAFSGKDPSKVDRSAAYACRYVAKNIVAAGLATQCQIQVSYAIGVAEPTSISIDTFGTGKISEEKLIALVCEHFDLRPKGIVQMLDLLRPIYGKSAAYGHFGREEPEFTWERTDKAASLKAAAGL
As to the kind of experiment: HPLC (SCX, […] nm) of SAM / MTA formation. The format is biochemical. To be noted: 80 μM ATP, 1 mM methionine, 250 nM enzyme; pH 7.5, 10 mM MgCl2, 37°C.

In data set [1] the target is T2, E. coli MAT (EcMAT) (Escherichia coli, UniProt P0A817).
T2 construct: gene metK; C-terminal His6 tag, full length, pET24a, BL21(DE3); homotetramer (dimer of dimers), ~43 kDa subunit
T2 sequence (P0A817 2-384): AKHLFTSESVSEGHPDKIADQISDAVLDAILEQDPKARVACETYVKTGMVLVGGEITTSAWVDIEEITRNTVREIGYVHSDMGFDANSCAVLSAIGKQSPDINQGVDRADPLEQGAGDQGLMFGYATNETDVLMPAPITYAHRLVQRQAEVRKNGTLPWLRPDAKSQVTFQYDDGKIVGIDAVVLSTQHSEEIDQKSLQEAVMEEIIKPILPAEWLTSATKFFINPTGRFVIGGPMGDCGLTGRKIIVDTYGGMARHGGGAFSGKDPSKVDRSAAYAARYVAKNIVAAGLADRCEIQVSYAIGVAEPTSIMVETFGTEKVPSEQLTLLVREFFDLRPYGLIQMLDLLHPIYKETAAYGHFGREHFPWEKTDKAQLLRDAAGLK
As to the kind of experiment: HPLC (SCX, […] nm) of SAM formation. The format is biochemical. Conditions: 80 μM ATP, 1 mM methionine, 250 nM enzyme; 25 mM HEPES pH 7.5, 100 mM KCl, 10 mM MgCl2, 1 mM DTT; 37°C; no SAMase.

Data set [2] addresses T3, E. coli MAT (EcMAT) (Escherichia coli, UniProt P0A817, D132P/V133T/I178V/I211V/A214P, form not given).
T3 construct: gene metK; C-terminal His6 tag, full length, pET24a, BL21(DE3); homotetramer (dimer of dimers), ~43 kDa subunit
As to the kind of experiment: HPLC (SCX, […] nm) of SAM / MTA formation. The format is biochemical. Conditions: mutant EcMAT; methionine as co-substrate; pH 7.5, 10 mM MgCl2, 37°C; W26L as printed (position doubtful, probably W216L).

The target of data set [3] is T4, U. urealyticum MAT (UuMAT) (Ureaplasma urealyticum, UniProt A0ABM9XK24).
T4 construct: gene metK
T4 sequence (A0ABM9XK24 1-376): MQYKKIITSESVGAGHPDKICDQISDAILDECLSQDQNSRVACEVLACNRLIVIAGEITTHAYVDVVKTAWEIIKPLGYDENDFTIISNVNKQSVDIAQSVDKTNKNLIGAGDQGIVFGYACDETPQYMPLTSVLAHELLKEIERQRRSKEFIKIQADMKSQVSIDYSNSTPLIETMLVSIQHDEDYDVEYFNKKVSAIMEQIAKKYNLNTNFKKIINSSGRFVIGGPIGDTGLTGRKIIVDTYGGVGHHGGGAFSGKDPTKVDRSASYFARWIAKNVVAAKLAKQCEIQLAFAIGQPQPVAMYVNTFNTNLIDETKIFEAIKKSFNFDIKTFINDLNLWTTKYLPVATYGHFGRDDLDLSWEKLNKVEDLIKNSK
The data set is described as follows: HPLC (SCX, […] nm) of SAM / MTA formation. Type of data set: biochemical. To be noted: 80 μM ATP, 1 mM methionine, 250 nM enzyme; pH 7.5, 10 mM MgCl2, 37°C.

Data set [4] concerns the molecule itself. The data set is described as follows: SEC; SAMase alone on Superdex 200 Increase 10/300 GL against protein standards; natively purified and refolded SAMase; 25 mM Tris pH 8.0, 150 mM KCl, 1 mM DTT. Background: SEC sorts molecules by how far they enter the pores of the column.
In data set [5] the target is B2. As to the kind of experiment: cryo-EM structure; refolded SAMase and E. coli MAT mixed 1:1 (160 μM monomer each) with 500 μM SAM, preincubated 48 h, high-molecular-weight SEC peak; single-particle, no symmetry imposed (C1). To be noted: both partners purified.
Data set [6] concerns the molecule itself. The description is as above.

T3 sequence (P0A817 2-384 D132P/V133T/I178V/I211V/A214P, form open): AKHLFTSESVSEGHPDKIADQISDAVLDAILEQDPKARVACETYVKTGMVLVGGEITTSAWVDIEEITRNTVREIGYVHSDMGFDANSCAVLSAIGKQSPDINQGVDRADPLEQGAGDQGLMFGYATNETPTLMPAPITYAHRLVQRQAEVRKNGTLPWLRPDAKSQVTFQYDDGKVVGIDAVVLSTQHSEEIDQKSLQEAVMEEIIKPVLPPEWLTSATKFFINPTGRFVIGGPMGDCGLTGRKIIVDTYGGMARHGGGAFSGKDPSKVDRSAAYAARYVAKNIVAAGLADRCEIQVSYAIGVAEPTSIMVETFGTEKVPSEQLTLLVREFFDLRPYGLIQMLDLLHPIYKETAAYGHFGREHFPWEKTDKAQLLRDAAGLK

In the case of `Nc1ncnc2c1ncn2[C@@H]1O[C@H](COP(=O)(O)OP(=O)(O)OP(=O)(O)O)[C@@H](O)[C@H]1O` [ATP], the “HPLC (SCX, 254 nm) of SAM / MTA formation” value on N. gonorrhea MAT (NgMAT) is “Synthesis of SAM from ATP and methionine of MAT proteins was conducted”; on E. coli MAT (EcMAT) [2], “mutant E. coli MAT (EcMAT mut) was measured either alone (blue trace, rate of SAM production”; in data set [3], “Synthesis of SAM from ATP and methionine of MAT proteins was conducted”. Moreover, on E. coli MAT (EcMAT) [1], the “HPLC (SCX, 254 nm) of SAM formation” value was “Synthesis of SAM from ATP and methionine by E. coli MAT was conducted in the absence”.

For the molecule `CSCC[C@H](N)C(=O)O` [methionine], the “HPLC (SCX, 254 nm) of SAM / MTA formation” value at N. gonorrhea MAT (NgMAT) is “Synthesis of SAM from ATP and methionine of MAT proteins was conducted”; in data set [3], “Synthesis of SAM from ATP and methionine of MAT proteins was conducted”. In addition, at E. coli MAT (EcMAT) [1], the “HPLC (SCX, 254 nm) of SAM formation” value is “Synthesis of SAM from ATP and methionine by E. coli MAT was conducted in the absence”.

B1: S-Adenosylmethionine lyase (SAMase) of bacteriophage T3, C-terminal His-tagged (enzyme)
chain: MIFTKEPAHVFYVLVSAFRSNLCDEVNMSRHRHMVSTLRAAPGLYGSVESTDLTGCYREAISSAPTEEKTVRVRCKDKAQALNVARLACNEWEQDCVLVYKSQTHTAGLVYAKGIDGYKAERLPGSFQEVPKGAPLQGCFTIDEFGRRWQVQ
notes: S-adenosylmethionine lyase (SAMase) of bacteriophage T3, UniProt P07693; gene synthesized de novo with six His codons at the 3' end; anticipated monomer size around 17 kDa; Dimer by SEC, cross-linking and cryo-EM; also called T3 SAMase; 6×His-tagged SAMase; not shown: His6, C-terminal, kept
For the molecule B1, the “stoichiometry N” value in data set [4] came to 2. Besides, the binding result in data set [5] is “binds”.

B2: the “stoichiometry N” value in data set [6] was 4.

By stoichiometry N is commonly meant the number of molecules, sites or subunits per partner or assembly.
